Converted amounts (≈) assume the structure as drawn.
Experiment: Inhibitory concentration against human 2'-phosphodiesterase

With `C[C@@H]1c2c(O)cc(O)c3c2[C@H]2[C@H](CC(=O)C4=C(O)c5c(O)cc(O)cc5[C@@H](C3=O)[C@]42Cc2cc(O)cc(=O)o2)[C@H]1O` the IC50 was 34 µg/mL (≈ 60.7 µM).

Reference: ChEMBL document CHEMBL1141061, “Structural elucidation of A-74528, an inhibitor for 2',5'-phosphodiesterase isolated from Streptomyces sp” (Bioorg Med Chem Lett, 2005)
